Earlier results as cited in patent publication US9999602B2, “Liquid menthol compositions” (DDROPS COMPANY, priority 2013, dated 2018).

Conditions: FDA review, Federal Register 1987

SMILES: CC(C)[C@@H]1CC[C@@H](C)C[C@H]1O [menthol, (1R, 2S, 5R)-5-menthol-2-(1-methylethyl)-cyclohexanol]
- Dose of menthol required for antitussive (cough-suppressant) effect: at least 5 mg
